# Measured values: patent publication US10584115B2, “Substituted pyridine and pyrazine BMI-1 inhibitors” (PTC Therapeutics, Inc., priority 2013, dated 2020)
# Test system: Bmi-1 protein
# Test: Sandwich ELISA Assay (Bmi-1 protein level in HT-1080 cells after compound treatment)
# Assay type: cell-based
# Settings: Table 1, Bmi-1 sandwich ELISA, read-out: ELISA EC50 value for Bmi-1 protein
# Outline: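 Sandwich ELISA quantified Bmi-1 protein against recombinant standard (125–8000 pg/mL), with lysates captured overnight at 4 °C and signal by HRP/TMB at 450 nm (570 nm reference). Lysates came from HT-1080 cells incubated 40–48 h with test compounds in 0.5% DMSO.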
row,EC50 [nM],SMILES
1,10 to 100,"N#Cc1cc(Nc2ccc(OC(F)F)cc2)nc(-c2c(CO)nc3ccc(F)cn23)c1 [compound 393, 2-{[4-(difluoromethoxy)phenyl]amino}-6-[6-fluoro-2-(hydroxymethyl)imidazo[1,2-a]pyridin-3-yl]pyridine-4-carbonitrile]"
2,10 to 100,"N#Cc1cc(Nc2ccc(OC(F)F)c(F)c2)nc(-c2c(CO)nc3ccc(F)cn23)c1 [compound 394, 2-{[4-(difluoromethoxy)-3-fluorophenyl]amino}-6-[6-fluoro-2-(hydroxymethyl)imidazo[1,2-a]pyridin-3-yl]pyridine-4-carbonitrile]"
3,100 to 3000,"N#Cc1cc(Nc2ccc(C(F)(F)F)c(F)c2)nc(-c2c(CO)nc3ccc(F)cn23)c1 [compound 395, 2-[6-fluoro-2-(hydroxymethyl)imidazo[1,2-a]pyridin-3-yl]-6-{[3-fluoro-4-(trifluoromethyl)phenyl]amino}pyridine-4-carbonitrile]"
4,10 to 100,"Cc1nc2ccc(O)cn2c1-c1cc(C#N)cc(Nc2ccc(OC(F)(F)F)cc2)n1 [compound 396, 2-(6-hydroxy-2-methylimidazo[1,2-a]pyridin-3-yl)-6-{[4-(trifluoromethoxy)phenyl]amino}pyridine-4-carbonitrile]"
5,100 to 3000,"Cc1nc2ccc(NCCO)cc2n1-c1cncc(Nc2ccc(C(F)(F)F)cc2)n1 [compound 397, 2-{[2-methyl-1-(6-{[4-(trifluoromethyl)phenyl]amino}pyrazin-2-yl)-1H-benzimidazol-6-yl]amino}ethanol]"
6,100 to 3000,"CCc1nc2c(n1-c1cncc(Nc3ccc(C(F)(F)F)cc3)n1)CN(C)CC2 [compound 398, 6-(2-ethyl-5-methyl-4,5,6,7-tetrahydro-3H-imidazo[4,5-c]pyridin-3-yl)-N-[4-(trifluoromethyl)phenyl]pyrazin-2-amine]"
7,1 to 10,"COCCn1nc(C)c(-c2cncc(Nc3ccc(C(F)(F)F)cc3)n2)c1C [compound 399, 6-[1-(2-methoxyethyl)-3,5-dimethyl-1H-pyrazol-4-yl]-N-[4-(trifluoromethyl)phenyl]pyrazin-2-amine]"
8,100 to 3000,"Cc1nc2cc(F)c(F)cc2n1-c1cncc(Nc2ccc(Cl)nc2)n1 [compound 405, N-(6-chloropyridin-3-yl)-6-(5,6-difluoro-2-methyl-1H-benzimidazol-1-yl)pyrazin-2-amine]"
9,10 to 100,"FC1CCc2nc(C(F)(F)F)c(-c3cncc(Nc4ccc(C(F)(F)F)cc4)n3)n2C1 (stereo not drawn) [compound 406, 6-[6-fluoro-2-(trifluoromethyl)-5,6,7,8-tetrahydroimidazo[1,2-a]pyridin-3-yl]-N-[4-(trifluoromethyl)phenyl]pyrazin-2-amine]"
10,100 to 3000,"FC(F)(F)c1ccc(Nc2cncc(-c3cccc4[nH]ccc34)n2)cc1 [compound 407, 6-(1H-indol-4-yl)-N-[4-(trifluoromethyl)phenyl]pyrazin-2-amine]"
11,10 to 100,"Cc1cc(Nc2cncc(-n3c(C)nc4ccccc43)n2)ccc1C(F)(F)F [compound 408, 6-(2-methyl-1H-benzimidazol-1-yl)-N-[3-methyl-4-(trifluoromethyl)phenyl]pyrazin-2-amine]"
12,1 to 10,"COC1CCc2nc(C)c(-c3cncc(Nc4ccc(C(F)(F)F)cc4)n3)n2C1 (stereo not drawn) [compound 409, 6-(6-methoxy-2-methyl-5,6,7,8-tetrahydroimidazo[1,2-a]pyridin-3-yl)-N-[4-(trifluoromethyl)phenyl]pyrazin-2-amine]"
13,10 to 100,"Fc1ccc2nc(C(F)(F)F)c(-c3cccc(Nc4ccc(C(F)(F)F)cc4)n3)n2c1 [compound 411, 6-[6-fluoro-2-(trifluoromethyl)imidazo[1,2-a]pyridin-3-yl]-N-[4-(trifluoromethyl)phenyl]pyridin-2-amine]"
14,1 to 10,"Cc1nn(C)c(Cl)c1-c1cncc(Nc2ccc(C(F)(F)F)cc2)n1 [compound 412, 6-(5-chloro-1,3-dimethyl-1H-pyrazol-4-yl)-N-[4-(trifluoromethyl)phenyl]pyrazin-2-amine]"
15,1 to 10,"Cc1nn(C)c(Cl)c1-c1cncc(Nc2ccc(OC(F)F)cc2)n1 [compound 413, 6-(5-chloro-1,3-dimethyl-1H-pyrazol-4-yl)-N-[4-(difluoromethoxy)phenyl]pyrazin-2-amine]"
16,10 to 100,"Cc1nn(C)c(Cl)c1-c1cncc(Nc2ccc(OC(F)(F)F)cc2)n1 [compound 414, 6-(5-chloro-1,3-dimethyl-1H-pyrazol-4-yl)-N-[4-(trifluoromethoxy)phenyl]pyrazin-2-amine]"
17,10 to 100,"Cc1nn(C)c(Cl)c1-c1cncc(Nc2ccc(OC(F)F)c(F)c2)n1 [compound 415, 6-(5-chloro-1,3-dimethyl-1H-pyrazol-4-yl)-N-[4-(difluoromethoxy)-3-fluorophenyl]pyrazin-2-amine]"
18,10 to 100,"Cn1nc2ccc(F)cc2c1-c1cncc(Nc2ccc(C(F)(F)F)cc2)n1 [compound 416, 6-(5-fluoro-2-methyl-2H-indazol-3-yl)-N-[4-(trifluoromethyl)phenyl]pyrazin-2-amine]"
19,10 to 100,"Cc1nc2c(F)cc(F)cc2n1-c1cncc(Nc2ccc(C(F)(F)F)cc2)n1 [compound 417, 6-(4,6-difluoro-2-methyl-1H-benzimidazol-1-yl)-N-[4-(trifluoromethyl)phenyl]pyrazin-2-amine]"
20,10 to 100,"ONc1cc(Nc2ccc(C(F)(F)F)cc2)nc(-c2c(C(F)(F)F)nc3ccc(F)cn23)c1 [compound 418, 6-[6-fluoro-2-(trifluoromethyl)imidazo[1,2-a]pyridin-3-yl]-N^4-hydroxy-N^2-[4-(trifluoromethyl)phenyl]pyridine-2,4-diamine]"
21,1 to 10,"Cc1nc2ncc(Cl)cc2n1-c1cc(C#N)cc(Nc2ccc(C(F)(F)F)cc2)n1 [compound 419, 2-(6-chloro-2-methyl-1H-imidazo[4,5-b]pyridin-1-yl)-6-{[4-(trifluoromethyl)phenyl]amino}pyridine-4-carbonitrile]"
22,1 to 10,"Cc1nc2ccccc2n1-c1cncc(Nc2nc3ccccc3s2)n1 [compound 420, N-[6-(2-methyl-1H-benzimidazol-1-yl)pyrazin-2-yl]-1,3-benzothiazol-2-amine]"
23,10 to 100,"FC(F)(F)c1ccc(Nc2cncc(-c3c(C4CC4)nc4ncccn34)n2)cc1 [compound 422, 6-(2-cyclopropylimidazo[1,2-a]pyrimidin-3-yl)-N-[4-(trifluoromethyl)phenyl]pyrazin-2-amine]"
24,10 to 100,"Cc1nc2cc(F)c(F)cc2n1-c1cncc(Nc2ccc(N3CCOCC3)nc2)n1 [compound 423, 6-(5,6-difluoro-2-methyl-1H-benzimidazol-1-yl)-N-[6-(morpholin-4-yl)pyridin-3-yl]pyrazin-2-amine]"
25,100 to 3000,"Cc1nc2ccccc2n1-c1cncc(NC2Cc3ccccc3C2)n1 [compound 424, N-(2,3-dihydro-1H-inden-2-yl)-6-(2-methyl-1H-benzimidazol-1-yl)pyrazin-2-amine]"
26,10 to 100,"Cc1nc2cc(F)c(F)cc2n1-c1cncc(Nc2ccc(NCCO)nc2)n1 [compound 425, 2-[(5-{[6-(5,6-difluoro-2-methyl-1H-benzimidazol-1-yl)pyrazin-2-yl]amino}pyridin-2-yl)amino]ethanol]"
27,100 to 3000,"Cc1nc2cc(F)ccc2n1-c1cncc(Nc2ccc(Cl)nc2)n1 [compound 426, N-(6-chloropyridin-3-yl)-6-(5-fluoro-2-methyl-1H-benzimidazol-1-yl)pyrazin-2-amine]"
